Patent US5206223A, “Method for inhibiting heparanase activity” (Yeda Research and Development Co. Ltd., priority 1986, dated 1993)

Experiments:
heparanase [1] = assay: Inhibition of T lymphocyte heparanase activity (degradation of 35S-labeled heparan sulfate of extracellular matrix); type: biochemical; conditions: medium of activated T lymphocytes, 35S-labeled extracellular matrix, various concentrations
Experimental: Heparanase activity was induced into the extracellular medium bathing activated T lymphocytes and tested by incubating the medium with extracellular matrix whose heparan sulfate was labeled with ^35 S as described (Naparstek, Y., Cohen, I. R., Fuks, Z. and I. Vlodavsky. Activated T lymphocytes produce a matrix-degrading heparan sulphate endoglycosidase. Nature 310:241 (1984)). Inhibition of heparanase activity was tested by adding various concentrations of heparin or modified heparins to the reaction mixture and measuring the effect on degradation of the labeled heparin-sulfate as described (Naparstek, Y., Cohen, I. R., Fuks, Z. and I. Vlodavsky.
Activated T lymphocytes produce a matrix-degrading heparan sulphate endoglycosidase, Nature 310:241 (1984)). Totally desulfated heparin and N-desulfated, N-acetylated heparin was prepared as described. (Ayotte, L., A. S. Perlin. NMR spectroscopic observations related to the function of sulfate groups in heparin. Calcium binding vs. biological activity. Carbohydrate Res. 145:267 (1986)).

skin allografts = assay: Skin allograft survival (SJL/J skin on (BALB/c×C57BL/6)F1 mice); type: in vivo; conditions: 0.05 mg/kg daily
Experimental: FIG. 1. Treatment with heparin (0.05 mg/kg) prevents rejection of skin allografts. Mice of hybrid strain (BALB/c×C57BL/6)F1 were grafted with skin from allogeneic SJL/J mice. The mice (20 per group) were treated daily with subcutaneous injections of saline (squares) or with heparin ("Leo", 0.05 mg/kg; diamonds) and scored for skin graft survival. Median survival for the control group was 10 days while that for the heparin treated group was 24 days.
FIG. 2. Treatment with N-desulfated, N-acetylated heparin (10 mg/kg) prevents rejection of skin allografts. Mice were grafted as described for FIG. 1 and treated daily with saline (squares) or N-desulfated, N-acetylated heparin (10 mg/kg; diamonds). The median survival of the skin allograft in the control group was 10 days while that in the treated group was 20 days.
The median survival time of the skin grafts on control mice treated with saline was […] while that on mice treated with 0.05 mg/kg daily of heparin was 26 days with maximal survival to 32 days.

adjuvant arthritis [2] = assay: Adjuvant arthritis induced with M. tuberculosis; type: in vivo, Lewis rats; conditions: for Adjuvant arthritis maximum clinical score: scale 0-16
DTH reaction = assay: Adoptively transferred DTH to OX: ear swelling and 51Cr I-LNC migration to the ear; type: in vivo, mice; conditions: for DTH ear swelling (FIG. 6 left): I-LNC transferred intravenously, 24 h
Experimental: I-LNC were obtained from OX sensitized mice (groups A-C) and naive LNC from unsensitized mice (group D). The LNC were transferred intravenously to naive recipients that were treated (groups B-C) or untreated (groups A,D) with heparin (5 μg or 20 μg) injected 18 h and 1 h prior to cell transfer and 20 h after cell transfer. DTH ear swelling was elicited by OX at the time of cell transfer and measured 24 h later.
Right: Heparin inhibits cell migration to DTH challenge site. The experiment was done as described in FIG. 6 (left), except that I-LNC were radiolabeled with ^51 Cr prior to cell transfer into naive recipient mice. The accumulation of I-LNC in the OX challenged ears is indicated as the ^51 Cr (cpm/ear).
Mice were sensitized to 4-ethoxymethylene-2-phenyl oxazolone (OX) by painting their skins twice at 5 day intervals with about 0.1 ml of 3% OX in a vehicle of 4:1 acetone:olive oil (by volume). Their immunized draining lymph node cells (I-LNC) were then transfered (5×10^7) to recipient mice intravenously. The ability of the I-LNC to reach the site of antigen and produce a DTH reaction was assayed by challenging the recipient mice 1 hr after I-LNC transfer with 0.02 ml of 0.5% OX painted on the ear. DTH was ascertained by measuring the thickness of the ears 24 hrs later with an engineers micrometer.
The ability of the transfered I-LNC to reach the ears was tested by labeling the I-LNC before transfer with radioactive ^51 Cr (10^7 cells/ml incubated with 0.1 mCi ^51 Cr sodium chromate and washed) and measuring the amount cpm reaching the ears at the time of DTH.

heparanase [3] = assay: Heparanase activity of I-LNC from heparin-treated OX-immunized mice; conditions: 5 μg per injection in vivo, I-LNC incubated 48 h with labeled ECM
Experimental: Mice were immunized with OX on days 0 and 5. Some of the mice were treated with heparin (5 μg or 25 μg per injection) 18 h before and 2, 10 and 20 h after the day 5 immunization with OX. On day 6, the I-LNC were removed and tested for heparanase activity by incubation for 48 h with labeled ECM. Heparan sulfate degradation products are shown for I-LNC from the following groups of mice: No heparin; 25 μg heparin X; 5 μg heparin-0. The LNC of control mice not immunized to OX had no heparanase activity (not shown).
To learn if these effects were associated with inhibition of endogenous heparanase, we treated mice with high (25 μg) or low (5 μg) doses of heparin, sensitized them to OX and tested their I-LNC for heparanase activity in vitro. […] Thus, treatment with 5 μg of heparin in vivo caused a substantial decrease of enzyme activity in sensitized lymphocytes.

DTH skin response = conditions: human, in vivo
[4] = Partial thromboplastin time in human volunteers; type: in vivo; conditions: 3 mg (500 units) per day
Experimental: The effective dose of heparin, 3 mg (500 units) per day, was computed from the optimal dose per weight in mice and rats and corrected for surface area. […] (not shown).

[5] = rat, in vivo, 10 mg/kg
renal allograft = conditions: subanticoagulant s.c. doses, 5000 U daily; cited from earlier work
adjuvant arthritis [6] = conditions: 1000 U/rat; cited from earlier work
lymphocytes = conditions: 17-35 mg/kg/rat; cited from earlier work
[7] = 0.001 mg s.c. once daily for 5 days from day 9
[8] = 0.005 mg s.c. once daily for 5 days from day 9
[9] = 0.01 mg s.c. once daily for 5 days from day 9
[10] = 0.02 mg s.c. once daily for 5 days from day 9

heparin
Inhibition of degradation of heparan sulfate by heparanase (heparanase [1]): yes | Maximal survival of skin allograft (skin allografts): 32 days | Adjuvant arthritis duration (adjuvant arthritis [2]; [7]): 20 days | Adjuvant arthritis maximum clinical score (adjuvant arthritis [2]; [7]): 6 | Adjuvant arthritis duration (adjuvant arthritis [2]; [8]): 16 days | Adjuvant arthritis maximum clinical score (adjuvant arthritis [2]; [8]): 4 | Adjuvant arthritis duration (adjuvant arthritis [2]; [9]): 15 days | Adjuvant arthritis maximum clinical score (adjuvant arthritis [2]; [9]): 5 | Adjuvant arthritis duration (adjuvant arthritis [2]; [10]): 8 days | Adjuvant arthritis maximum clinical score (adjuvant arthritis [2]; [10]): 2 | Adjuvant arthritis duration (adjuvant arthritis [2]; 0.04 mg s.c. once daily for 5 days from day 9, dose 0: >20): > 20 days | Adjuvant arthritis maximum clinical score (adjuvant arthritis [2]; 0.04 mg s.c. once daily for 5 days from day 9, dose 0: 10): 10 | Inhibition of arthritis (adjuvant arthritis [2]; rat, in vivo): yes | Arthritis score (day 60) (adjuvant arthritis [2]; rat, in vivo, sc): 0 | Accumulation of 51Cr I-LNC in OX challenged ears (cpm/ear, FIG. 6 right) (DTH reaction; 5 μg per injection): decreased cpm | DTH ear swelling (FIG. 6 left) (DTH reaction; 5 μg per injection): decreased ear swelling | Accumulation of 51Cr I-LNC in OX challenged ears (cpm/ear, FIG. 6 right) (DTH reaction; 20 μg per injection): did not inhibit | DTH ear swelling (FIG. 6 left) (DTH reaction; 20 μg per injection): did not inhibit | Heparanase activity of I-LNC (FIG. 7) (heparanase [3]): lacked heparanase activity | Effect on the DTH response (FIG. 9) (DTH skin response): did not have a significant inhibitory effect | Extent of induration (DTH skin response): decreased similarly | Mean diameter of erythema to mumps during treatment (DTH skin response): 13.6 mm | Mean diameter of erythema to tetanus toxoid during treatment (DTH skin response): 16.8 mm | Reversibility of the effect on the DTH response (FIG. 9) (DTH skin response): transient | Volunteers with significantly decreased DTH response to mumps (DTH skin response; sc): 11/12 | Volunteers with significantly decreased DTH response to tetanus (DTH skin response; sc): 10/12 | Partial thromboplastin time [4]: no change in the partial thromboplastin time | Anti-coagulant effect (prothrombin time) [5]: increase in the prothrombin time | Early renal allograft function and graft survival (renal allograft): no effect on early graft function or graft survival | Severity of rat adjuvant arthritis (adjuvant arthritis [6]): enhanced the severity of the rat adjuvant arthritis | Emigration of lymphocytes from the circulation (lymphocytes): inhibit the emigration of lymphocytes from the circulation
